Experimental data reported in PubChem BioAssay (NCI).
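Interpolation was linear, between the two tested concentrations surrounding the appropriate level; five concentrations were tested over 48 hours in 96-well plates. TGI: total growth inhibition.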

Experiments:
Test in all cases: NCI tumour cell line growth inhibition, 48 h
SNB-75 CNS = system: SNB-75 CNS
KM12 colon = system: KM12 colon
XF 498 CNS = system: XF 498 CNS
UO-31 renal = system: UO-31 renal
SN12C renal = system: SN12C renal
SK-MEL-28 melanoma = system: SK-MEL-28 melanoma
SNB-78 CNS = system: SNB-78 CNS
UACC-257 melanoma = system: UACC-257 melanoma
MALME-3M melanoma = system: MALME-3M melanoma
A498 renal = system: A498 renal
NCI-H226 lung = system: NCI-H226 lung
SR leukemia = system: SR leukemia
LOX IMVI melanoma = system: LOX IMVI melanoma
DLD-1 colon = system: DLD-1 colon
DMS 273 small cell lung = system: DMS 273 small cell lung
OVCAR-8 ovarian = system: OVCAR-8 ovarian
LXFL 529 NSCLC = system: LXFL 529 NSCLC
RXF 393 renal = system: RXF 393 renal
RPMI-8226 leukemia = system: RPMI-8226 leukemia
SK-OV-3 ovarian = system: SK-OV-3 ovarian
IGROV1 ovarian = system: IGROV1 ovarian
CCRF-CEM leukemia = system: CCRF-CEM leukemia
HT29 colon = system: HT29 colon
A549 NSCLC = system: A549 NSCLC
786-0 renal = system: 786-0 renal
M14 melanoma = system: M14 melanoma
U251 CNS = system: U251 CNS
SW-620 colon = system: SW-620 colon
DMS 114 small cell lung = system: DMS 114 small cell lung
K-562 leukemia = system: K-562 leukemia
SF-268 CNS = system: SF-268 CNS
HOP-92 NSCLC = system: HOP-92 NSCLC
NCI-H460 lung = system: NCI-H460 lung
NCI-H23 lung = system: NCI-H23 lung
HOP-62 NSCLC = system: HOP-62 NSCLC
COLO 205 colon = system: COLO 205 colon
SF-295 CNS = system: SF-295 CNS
HCT-15 colon = system: HCT-15 colon
RXF-631 renal = system: RXF-631 renal
EKVX NSCLC = system: EKVX NSCLC
TK-10 renal = system: TK-10 renal
SF-539 CNS = system: SF-539 CNS
M19-MEL melanoma = system: M19-MEL melanoma
UACC-62 melanoma = system: UACC-62 melanoma
KM20L2 colon = system: KM20L2 colon
ACHN renal = system: ACHN renal
HCC-2998 colon = system: HCC-2998 colon
OVCAR-3 ovarian = system: OVCAR-3 ovarian
SNB-19 CNS = system: SNB-19 CNS
CAKI-1 renal = system: CAKI-1 renal
HOP-18 NSCLC = system: HOP-18 NSCLC
OVCAR-4 ovarian = system: OVCAR-4 ovarian
SN12K1 renal = system: SN12K1 renal
NCI/ADR-RES ovarian = system: NCI/ADR-RES ovarian
MOLT-4 leukemia = system: MOLT-4 leukemia
HCT-116 colon = system: HCT-116 colon
SK-MEL-5 melanoma = system: SK-MEL-5 melanoma
OVCAR-5 ovarian = system: OVCAR-5 ovarian
HL-60(TB) leukemia = system: HL-60(TB) leukemia
P388 leukemia = system: P388 leukemia
MCF7 breast = system: MCF7 breast
NCI-H522 lung = system: NCI-H522 lung
SK-MEL-2 melanoma = system: SK-MEL-2 melanoma
P388/ADR leukemia = system: P388/ADR leukemia

CC(=O)OC1COC(n2ccc3cc(Br)c([N+](=O)[O-])cc32)C(OC(C)=O)C1OC(C)=O (configuration not stated)
TGI (SNB-75 CNS): 75.2 µM | TGI (KM12 colon): > 100 µM | TGI (XF 498 CNS): 30.5 µM | TGI (UO-31 renal): 42.8 µM | TGI (SN12C renal): > 100 µM | TGI (SK-MEL-28 melanoma): > 100 µM | TGI (SNB-78 CNS): 84.6 µM | TGI (UACC-257 melanoma): 52 µM | TGI (MALME-3M melanoma): 72.5 µM | TGI (A498 renal): 78.9 µM | TGI (NCI-H226 lung): 43.9 µM | TGI (SR leukemia): > 100 µM | TGI (LOX IMVI melanoma): 40.7 µM | TGI (DLD-1 colon): > 100 µM | TGI (DMS 273 small cell lung): > 100 µM | TGI (OVCAR-8 ovarian): 82.1 µM | TGI (LXFL 529 NSCLC): > 100 µM | TGI (RXF 393 renal): > 100 µM | TGI (RPMI-8226 leukemia): > 100 µM | TGI (SK-OV-3 ovarian): > 100 µM | TGI (IGROV1 ovarian): > 100 µM | TGI (CCRF-CEM leukemia): 81.7 µM | TGI (HT29 colon): > 100 µM | TGI (A549 NSCLC): 92.3 µM | TGI (786-0 renal): 97.9 µM | TGI (M14 melanoma): > 100 µM | TGI (U251 CNS): 56 µM | TGI (SW-620 colon): > 100 µM | TGI (DMS 114 small cell lung): 94.1 µM | TGI (K-562 leukemia): > 100 µM | TGI (SF-268 CNS): > 100 µM | TGI (HOP-92 NSCLC): 42 µM | TGI (NCI-H460 lung): 69.5 µM | TGI (NCI-H23 lung): 61.3 µM | TGI (HOP-62 NSCLC): 92.2 µM | TGI (COLO 205 colon): 50 µM | TGI (SF-295 CNS): 66.7 µM | TGI (HCT-15 colon): > 100 µM | TGI (RXF-631 renal): 58.8 µM | TGI (EKVX NSCLC): > 100 µM | TGI (TK-10 renal): 81.7 µM | TGI (SF-539 CNS): 44.4 µM | TGI (M19-MEL melanoma): > 100 µM | TGI (UACC-62 melanoma): 46.5 µM | TGI (KM20L2 colon): > 100 µM | TGI (ACHN renal): > 100 µM | TGI (HCC-2998 colon): 59.6 µM | TGI (OVCAR-3 ovarian): 65.6 µM | TGI (SNB-19 CNS): > 100 µM | TGI (CAKI-1 renal): > 100 µM

CCCSCC(P(=O)(O)O)P(=O)(O)O
TGI (HOP-18 NSCLC): > 100 µM | TGI (SNB-75 CNS): > 100 µM | TGI (OVCAR-4 ovarian): > 100 µM | TGI (KM12 colon): > 100 µM | TGI (XF 498 CNS): > 100 µM | TGI (UO-31 renal): > 100 µM | TGI (SN12C renal): > 100 µM | TGI (SK-MEL-28 melanoma): > 100 µM | TGI (SN12K1 renal): > 100 µM | TGI (SNB-78 CNS): > 100 µM | TGI (UACC-257 melanoma): > 100 µM | TGI (NCI/ADR-RES ovarian): > 100 µM | TGI (MOLT-4 leukemia): > 100 µM | TGI (MALME-3M melanoma): > 100 µM | TGI (A498 renal): > 100 µM | TGI (NCI-H226 lung): > 100 µM | TGI (HCT-116 colon): > 100 µM | TGI (SK-MEL-5 melanoma): > 100 µM | TGI (LOX IMVI melanoma): > 100 µM | TGI (DLD-1 colon): > 100 µM | TGI (DMS 273 small cell lung): > 100 µM | TGI (OVCAR-5 ovarian): > 100 µM | TGI (OVCAR-8 ovarian): > 100 µM | TGI (RXF 393 renal): > 100 µM | TGI (RPMI-8226 leukemia): > 100 µM | TGI (SK-OV-3 ovarian): > 100 µM | TGI (IGROV1 ovarian): > 100 µM | TGI (CCRF-CEM leukemia): > 100 µM | TGI (HT29 colon): > 100 µM | TGI (A549 NSCLC): > 100 µM | TGI (U251 CNS): > 100 µM | TGI (SW-620 colon): > 100 µM | TGI (HL-60(TB) leukemia): > 100 µM | TGI (DMS 114 small cell lung): > 100 µM | TGI (K-562 leukemia): > 100 µM | TGI (SF-268 CNS): > 100 µM | TGI (P388 leukemia): > 100 µM | TGI (HOP-92 NSCLC): > 100 µM | TGI (NCI-H460 lung): > 100 µM | TGI (NCI-H23 lung): > 100 µM | TGI (HOP-62 NSCLC): > 100 µM | TGI (COLO 205 colon): > 100 µM | TGI (MCF7 breast): > 100 µM | TGI (NCI-H522 lung): > 100 µM | TGI (SF-295 CNS): > 100 µM | TGI (HCT-15 colon): > 100 µM | TGI (EKVX NSCLC): > 100 µM | TGI (SK-MEL-2 melanoma): > 100 µM | TGI (SF-539 CNS): > 100 µM | TGI (M19-MEL melanoma): > 100 µM | TGI (UACC-62 melanoma): > 100 µM | TGI (KM20L2 colon): > 100 µM | TGI (HCC-2998 colon): > 100 µM | TGI (P388/ADR leukemia): > 100 µM | TGI (OVCAR-3 ovarian): > 86.9 µM | TGI (SNB-19 CNS): > 100 µM | TGI (CAKI-1 renal): > 100 µM
